This note sets out measurements from US20260242419A1, “A CYCLIC PEPTIDE FOR TRAPPING INTERLEUKIN-1 BETA” (Merck Sharp & Dohme LLC, priority 2023, published 2026).

pIC50: −log10 of the molar value. Starred links: 1 amine or outer side, 2 acyl side, 3 side chain; linkers in the order of their positions; H or OH if unused. Non-standard residues stand in square brackets, D forms with d. Residues, ends and D or L forms follow the SMILES beside them. Trp(βS-Me,4-F) = C[C@@H](c1c[nH]c2cccc(F)c12)[C@H](N)C(=O)O; Bip(4'-COOH) = N[C@@H](Cc1ccc(-c2ccc(C(=O)O)cc2)cc1)C(=O)O; dPro(4R-Bzl(4-F)) = O=C(O)[C@H]1C[C@@H](Cc2ccc(F)cc2)CN1; Ala(pyrimidin-5-yl) = N[C@@H](Cc1cncnc1)C(=O)O; Phe(4-COOH) = N[C@@H](Cc1ccc(C(=O)O)cc1)C(=O)O; dαMeDab = C[C@](CCN[*:3])(N[*:1])C(=O)[*:2]; Pro(cis-4-F) = O=C(O)[C@@H]1C[C@H](F)CN1; X10 = C[C@@](CCN)(N[*:1])C(=O)[*:2]; 4Pal = N[C@@H](Cc1ccncc1)C(=O)O; αMeK = C[C@](N)(CCCCN)C(=O)O; hSer = N[C@@H](CCO)C(=O)O; Dab = NCC[C@H](N)C(=O)O; Aib = CC(C)(N)C(=O)O; Sar = CNCC(=O)O

The target in the assay is T1, IL-1β (Homo sapiens, UniProt P01584).
T1 construct: purchased BioLegend 579404
T1 sequence (P01584 117-269): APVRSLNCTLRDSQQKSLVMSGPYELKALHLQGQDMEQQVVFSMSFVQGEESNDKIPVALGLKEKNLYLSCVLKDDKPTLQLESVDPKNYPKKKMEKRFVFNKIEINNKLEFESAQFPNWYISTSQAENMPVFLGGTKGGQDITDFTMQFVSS
The assay is described as follows: IL-6 assay in MRC5 cells: inhibition of IL-1β induced IL-6 secretion (AlphaLISA). Format: cell-based. The settings on record: inhibition of IL-1β induced IL-6 secretion in MRC5 cells; read-out: MRC5 IC50. In short, it runs like this: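 Compound was pre-incubated 1 h at ambient temperature with recombinant human IL-1β at 2λ EC80 before adding human lung fibroblast MRC5 cells (3000/well) in EMEM with 0.025% BSA. After overnight culture at 37 °C, 5% CO2, secreted IL-6 in conditioned medium was measured by AlphaLISA; IC50 from 4-parameter logistic fits.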
For `C[C@@H](c1c[nH]c2cccc(F)c12)[C@@H]1NC(=O)[C@@H]2C[C@H](F)CN2C(=O)CNC(=O)[C@H](Cc2ccc(C(=O)O)cc2)NC(=O)[C@H](Cc2ccncc2)NC(=O)[C@H](Cc2ccc(-c3ccc(C(=O)O)cc3)cc2)NC(=O)[C@H]2C[C@@H](Cc3ccc(F)cc3)CN2C(=O)CNC(=O)[C@H](CCN)NC(=O)[C@H](CCC(N)=O)NC(=O)[C@H](Cc2cncnc2)NC(=O)[C@](C)(CCN)NC(=O)[C@H](Cc2c[nH]c3ccccc23)NC(=O)[C@H](CO)NC(=O)C(C)(C)NC1=O` [Example 130] (cyclo([Bip(4'-COOH)][4Pal][Phe(4-COOH)]G[Pro(cis-4-F)][Trp(βS-Me,4-F)][Aib]SW[X10][Ala(pyrimidin-5-yl)]Q[Dab]G[dPro(4R-Bzl(4-F))])), the negative logarithm of the IC50 (pIC50) was 10.41. With `C[C@@H](c1c[nH]c2cccc(F)c12)[C@@H]1NC(=O)[C@@H]2C[C@H](F)CN2C(=O)CNC(=O)[C@H](Cc2ccc(C(=O)O)cc2)NC(=O)[C@H](Cc2ccncc2)NC(=O)[C@H](Cc2ccc(-c3ccc(C(=O)O)cc3)cc2)NC(=O)[C@H]2C[C@@H](Cc3ccc(F)cc3)CN2C(=O)CNC(=O)[C@H](CCN)NC(=O)[C@H](CCC(N)=O)NC(=O)[C@H](Cc2cncnc2)NC(=O)C(C)(C)NC(=O)[C@H](Cc2c[nH]c3ccccc23)NC(=O)[C@H](CO)NC(=O)[C@@](C)(CCN)NC1=O` [Example 131] (cyclo([Bip(4'-COOH)][4Pal][Phe(4-COOH)]G[Pro(cis-4-F)][Trp(βS-Me,4-F)][dαMeDab]SW[Aib][Ala(pyrimidin-5-yl)]Q[Dab]G[dPro(4R-Bzl(4-F))])) the figure was 10.72; with `C[C@@H](c1c[nH]c2cccc(F)c12)[C@@H]1NC(=O)[C@@H]2C[C@H](F)CN2C(=O)CNC(=O)[C@H](Cc2ccc(C(=O)O)cc2)NC(=O)[C@H](Cc2ccncc2)NC(=O)[C@H](Cc2ccc(-c3ccc(C(=O)O)cc3)cc2)NC(=O)[C@H]2C[C@@H](Cc3ccc(F)cc3)CN2C(=O)CN(C)C(=O)[C@H](CCN)NC(=O)[C@H](CCC(N)=O)NC(=O)[C@H](Cc2cncnc2)NC(=O)[C@](C)(CCCCN)NC(=O)[C@H](Cc2c[nH]c3ccccc23)NC(=O)[C@H](CCC(=O)O)NC(=O)C(C)(C)NC1=O` [Example 132] (cyclo([Bip(4'-COOH)][4Pal][Phe(4-COOH)]G[Pro(cis-4-F)][Trp(βS-Me,4-F)][Aib]EW[αMeK][Ala(pyrimidin-5-yl)]Q[Dab][Sar][dPro(4R-Bzl(4-F))])), 10.82. `C[C@@H](c1c[nH]c2cccc(F)c12)[C@@H]1NC(=O)[C@@H]2C[C@H](F)CN2C(=O)CNC(=O)[C@H](Cc2ccc(C(=O)O)cc2)NC(=O)[C@H](Cc2ccncc2)NC(=O)[C@H](Cc2ccc(-c3ccc(C(=O)O)cc3)cc2)NC(=O)[C@H]2C[C@@H](Cc3ccc(F)cc3)CN2C(=O)CNC(=O)[C@H](CCN)NC(=O)[C@H](CCC(N)=O)NC(=O)[C@H](Cc2cncnc2)NC(=O)[C@](C)(CCCCN)NC(=O)[C@H](Cc2c[nH]c3ccccc23)NC(=O)[C@H](CCO)NC(=O)C(C)(C)NC1=O` [Example 133] (cyclo([Bip(4'-COOH)][4Pal][Phe(4-COOH)]G[Pro(cis-4-F)][Trp(βS-Me,4-F)][Aib][hSer]W[αMeK][Ala(pyrimidin-5-yl)]Q[Dab]G[dPro(4R-Bzl(4-F))])): the pIC50 was 10.68. In the case of `C[C@@H]1NC(=O)C(C)(C)NC(=O)[C@H]([C@@H](C)c2c[nH]c3cccc(F)c23)NC(=O)[C@@H]2C[C@H](F)CN2C(=O)CNC(=O)[C@H](Cc2ccc(C(=O)O)cc2)NC(=O)[C@H](Cc2ccncc2)NC(=O)[C@H](Cc2ccc(-c3ccc(C(=O)O)cc3)cc2)NC(=O)[C@H]2C[C@@H](Cc3ccc(F)cc3)CN2C(=O)CNC(=O)[C@H](CCN)NC(=O)[C@H](CCC(N)=O)NC(=O)[C@H](Cc2cncnc2)NC(=O)[C@](C)(CCCCN)NC(=O)[C@H](Cc2c[nH]c3ccccc23)NC1=O` [Example 134] (cyclo([Bip(4'-COOH)][4Pal][Phe(4-COOH)]G[Pro(cis-4-F)][Trp(βS-Me,4-F)][Aib]AW[αMeK][Ala(pyrimidin-5-yl)]Q[Dab]G[dPro(4R-Bzl(4-F))])), the pIC50 was 10.68.
